# Where a name gives a salt, the structure may show the parent alone.
# Test: Loss of lidocaine HCl on sterilization and storage in glass or plastic containers
# Type: physicochemical
# Experimental: This composition was packaged in 20-mL cyclic olefin polymer (COP) and polypropylene (PP) syringes; the polypropylene was not non-nucleated. Storage conditions were, as indicated below, either 25° C./60% relative humidity (RH) or 40° C./75% RH.
# Testing points were as follows: at the initiation of the stability study, after 1 month, 2 months, 3 months, 6 months, and 12 months.
# Additionally, the syringe parts (the plunger and the syringe body) were analyzed for leachables.
smiles,measurement,setting,value
CCN(CC)CC(=O)Nc1c(C)cccc1C [lidocaine hydrochloride],loss of lidocaine hydrochloride after sterilization (FIG. 9),"glass vials, 80 mM phosphate buffer",small loss
same,loss of lidocaine hydrochloride after sterilization (FIG. 9),"glass vials, different phosphate buffer molarities except 80 mM",no loss
same,loss of lidocaine hydrochloride after sterilization (FIG. 9),"plastic syringes, increasing with phosphate buffer molarity",significant loss
